Measurements taken from ChEMBL document CHEMBL4665907, “Breakthrough in Degradation of BCR-ABL Fusion Protein for the Treatment of Cancer” (ACS Med Chem Lett, 2020).

Experiments:
[1] = target: T1, von Hippel-Lindau disease tumor suppressor/Tyrosine-protein kinase ABL1/Breakpoint cluster region protein (Homo sapiens, UniProt P00519+P11274+P40337); experiment: Protac binding affinity at VHL/BCR-ABL (unknown origin) assessed as binding to phosphorylated c-ABL kinase domain by Kinomescan assay; assay type: protein assay
T1 sequence (P00519 whole entry, the tested form may be a part): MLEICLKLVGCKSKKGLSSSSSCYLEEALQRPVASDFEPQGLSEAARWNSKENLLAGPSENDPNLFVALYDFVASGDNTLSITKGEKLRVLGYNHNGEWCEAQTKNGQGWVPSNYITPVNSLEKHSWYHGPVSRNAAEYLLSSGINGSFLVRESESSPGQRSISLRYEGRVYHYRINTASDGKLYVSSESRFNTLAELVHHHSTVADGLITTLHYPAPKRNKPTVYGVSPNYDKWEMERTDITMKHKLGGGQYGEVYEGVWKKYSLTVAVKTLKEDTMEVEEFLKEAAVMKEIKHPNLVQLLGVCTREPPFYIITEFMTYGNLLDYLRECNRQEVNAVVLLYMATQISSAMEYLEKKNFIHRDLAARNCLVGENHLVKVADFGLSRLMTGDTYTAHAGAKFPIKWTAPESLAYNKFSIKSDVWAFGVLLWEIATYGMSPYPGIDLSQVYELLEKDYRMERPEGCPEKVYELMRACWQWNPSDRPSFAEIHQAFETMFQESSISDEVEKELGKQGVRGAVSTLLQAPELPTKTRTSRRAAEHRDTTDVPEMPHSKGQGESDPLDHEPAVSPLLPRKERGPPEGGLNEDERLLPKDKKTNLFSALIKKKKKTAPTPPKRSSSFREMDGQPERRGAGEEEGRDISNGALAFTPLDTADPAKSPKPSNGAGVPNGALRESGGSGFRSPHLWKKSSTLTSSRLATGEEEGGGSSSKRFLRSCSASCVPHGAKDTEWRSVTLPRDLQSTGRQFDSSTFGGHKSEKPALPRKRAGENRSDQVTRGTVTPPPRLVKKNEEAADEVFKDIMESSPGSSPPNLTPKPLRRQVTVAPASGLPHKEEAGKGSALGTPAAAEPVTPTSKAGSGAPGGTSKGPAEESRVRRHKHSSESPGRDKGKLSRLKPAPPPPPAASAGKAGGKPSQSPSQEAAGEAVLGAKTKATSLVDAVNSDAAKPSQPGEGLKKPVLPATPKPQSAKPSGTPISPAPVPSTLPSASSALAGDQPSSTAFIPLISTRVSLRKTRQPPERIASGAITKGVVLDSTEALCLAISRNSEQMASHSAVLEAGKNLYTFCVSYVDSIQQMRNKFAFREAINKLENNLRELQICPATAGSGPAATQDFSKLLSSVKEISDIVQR
T1 sequence (P11274 whole entry, the tested form may be a part): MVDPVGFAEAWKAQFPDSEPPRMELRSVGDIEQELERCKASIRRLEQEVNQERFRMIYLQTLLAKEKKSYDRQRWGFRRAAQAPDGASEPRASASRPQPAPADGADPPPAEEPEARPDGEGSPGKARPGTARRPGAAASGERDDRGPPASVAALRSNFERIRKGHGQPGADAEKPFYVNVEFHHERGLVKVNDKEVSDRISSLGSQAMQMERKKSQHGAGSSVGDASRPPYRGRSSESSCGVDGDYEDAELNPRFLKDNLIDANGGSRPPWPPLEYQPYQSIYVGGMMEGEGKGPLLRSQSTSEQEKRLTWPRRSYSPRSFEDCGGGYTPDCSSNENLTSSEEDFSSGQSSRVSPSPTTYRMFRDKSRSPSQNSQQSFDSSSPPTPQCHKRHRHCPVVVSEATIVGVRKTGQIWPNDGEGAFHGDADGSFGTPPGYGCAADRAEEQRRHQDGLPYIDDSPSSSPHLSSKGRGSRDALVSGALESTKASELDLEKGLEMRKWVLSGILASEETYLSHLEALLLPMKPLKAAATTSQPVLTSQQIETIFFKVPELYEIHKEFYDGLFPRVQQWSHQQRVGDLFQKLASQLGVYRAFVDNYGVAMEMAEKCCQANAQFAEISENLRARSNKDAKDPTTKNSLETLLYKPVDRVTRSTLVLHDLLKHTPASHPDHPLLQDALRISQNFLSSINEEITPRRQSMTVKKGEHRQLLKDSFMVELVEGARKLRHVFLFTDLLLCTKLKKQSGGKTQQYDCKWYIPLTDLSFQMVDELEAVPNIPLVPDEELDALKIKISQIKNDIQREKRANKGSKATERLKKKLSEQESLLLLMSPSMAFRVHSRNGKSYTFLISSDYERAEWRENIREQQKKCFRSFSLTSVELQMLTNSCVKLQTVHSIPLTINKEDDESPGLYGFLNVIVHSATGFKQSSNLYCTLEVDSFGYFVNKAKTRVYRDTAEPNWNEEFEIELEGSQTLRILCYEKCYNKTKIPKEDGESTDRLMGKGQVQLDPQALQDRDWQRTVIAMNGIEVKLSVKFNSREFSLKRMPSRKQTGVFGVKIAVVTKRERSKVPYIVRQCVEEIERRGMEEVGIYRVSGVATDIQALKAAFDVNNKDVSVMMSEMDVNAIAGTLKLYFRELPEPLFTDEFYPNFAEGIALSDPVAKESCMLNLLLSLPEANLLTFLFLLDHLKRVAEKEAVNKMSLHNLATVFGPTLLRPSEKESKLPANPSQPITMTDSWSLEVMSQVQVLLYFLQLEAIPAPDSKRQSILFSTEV
T1 sequence (P40337 whole entry, the tested form may be a part): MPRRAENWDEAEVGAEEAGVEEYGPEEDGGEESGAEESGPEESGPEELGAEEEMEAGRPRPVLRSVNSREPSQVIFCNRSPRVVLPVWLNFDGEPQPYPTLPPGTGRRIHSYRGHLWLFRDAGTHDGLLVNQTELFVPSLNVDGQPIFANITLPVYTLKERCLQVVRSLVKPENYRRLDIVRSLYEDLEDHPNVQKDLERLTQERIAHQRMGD

[2] = target: T1, von Hippel-Lindau disease tumor suppressor/Tyrosine-protein kinase ABL1/Breakpoint cluster region protein; experiment: Protac binding affinity at VHL/BCR-ABL (unknown origin) assessed as binding to non phosphorylated c-ABL kinase domain by Kinomescan assay; assay type: protein assay
[3] = target: T2, Protein cereblon/Tyrosine-protein kinase ABL1/Breakpoint cluster region protein (Homo sapiens, UniProt P00519+P11274+Q96SW2); experiment: Protac activity at CRBN/BCR-ABL in human K562 cells assessed as induction of BCR-ABL degradation at 2.5 uM incubated for 24 hrs by western blot analysis relative to control; assay type: cell-based
Target sequence in this assay (P00519 whole entry, looked up): as the sequence (P00519 whole entry, the tested form may be a part) above
Target sequence in this assay (P11274 whole entry, looked up): as the sequence (P11274 whole entry, the tested form may be a part) above
Target sequence in this assay (Q96SW2 whole entry, looked up): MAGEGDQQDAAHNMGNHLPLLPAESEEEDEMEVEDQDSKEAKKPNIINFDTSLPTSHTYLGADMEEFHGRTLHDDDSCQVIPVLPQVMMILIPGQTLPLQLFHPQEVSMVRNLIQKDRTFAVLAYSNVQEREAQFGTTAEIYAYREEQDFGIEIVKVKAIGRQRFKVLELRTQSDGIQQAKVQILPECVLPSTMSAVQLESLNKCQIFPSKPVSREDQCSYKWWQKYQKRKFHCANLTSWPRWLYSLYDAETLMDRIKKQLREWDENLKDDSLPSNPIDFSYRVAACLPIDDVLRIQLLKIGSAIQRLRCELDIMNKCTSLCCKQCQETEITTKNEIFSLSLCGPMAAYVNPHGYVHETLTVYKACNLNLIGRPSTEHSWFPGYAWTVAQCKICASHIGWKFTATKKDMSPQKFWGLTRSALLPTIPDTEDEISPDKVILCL

[4] = target: T2, Protein cereblon/Tyrosine-protein kinase ABL1/Breakpoint cluster region protein; experiment: Protac activity at CRBN/BCR-ABL in human K562 cells assessed as induction of BCR-ABL degradation at 1 uM incubated for 24 hrs by western blot analysis relative to control; assay type: cell-based
Target sequence in this assay (P00519 whole entry, looked up): as the sequence (P00519 whole entry, the tested form may be a part) above
Target sequence in this assay (P11274 whole entry, looked up): as the sequence (P11274 whole entry, the tested form may be a part) above
Target sequence in this assay (Q96SW2 whole entry, looked up): as the sequence (Q96SW2 whole entry, looked up) above

[5] = target: T2, Protein cereblon/Tyrosine-protein kinase ABL1/Breakpoint cluster region protein; experiment: Protac binding affinity at CRBN/BCR-ABL (unknown origin) assessed as binding to phosphorylated c-ABL kinase domain by Kinomescan assay; assay type: protein assay
Target sequence in this assay (P00519 whole entry): as the sequence (P00519 whole entry, the tested form may be a part) above
Target sequence in this assay (P11274 whole entry): as the sequence (P11274 whole entry, the tested form may be a part) above
Target sequence in this assay (Q96SW2 whole entry): as the sequence (Q96SW2 whole entry, looked up) above

[6] = target: T2, Protein cereblon/Tyrosine-protein kinase ABL1/Breakpoint cluster region protein; experiment: Protac binding affinity at CRBN/BCR-ABL (unknown origin) assessed as binding to non phosphorylated c-ABL kinase domain by Kinomescan assay; assay type: protein assay
Target sequence in this assay (P00519 whole entry): as the sequence (P00519 whole entry, the tested form may be a part) above
Target sequence in this assay (P11274 whole entry): as the sequence (P11274 whole entry, the tested form may be a part) above
Target sequence in this assay (Q96SW2 whole entry): as the sequence (Q96SW2 whole entry, looked up) above

Structure (SMILES) | Kd [1] | Kd [2] | Activity [3] | Activity [4] | Kd [5] | Kd [6]
COc1cc(Nc2c(C#N)cnc3cc(OCCCN4CCN(CCCCCCOCCOCCOCCOCCOCCOCC(=O)N[C@H](C(=O)N5C[C@H](O)C[C@H]5C(=O)NCc5ccc(-c6scnc6C)cc5)C(C)(C)C)CC4)c(OC)cc23)c(Cl)cc1Cl | 300 pM | 570 pM | – | – | – | –
COc1cc(Nc2c(C#N)cnc3cc(OCCCN4CCN(CCCCCCOCCOCC(=O)N[C@H](C(=O)N5C[C@H](O)C[C@H]5C(=O)NCc5ccc(-c6scnc6C)cc5)C(C)(C)C)CC4)c(OC)cc23)c(Cl)cc1Cl | 670 pM | 1300 pM | – | – | – | –
Cc1nc(Nc2ncc(C(=O)Nc3c(C)cccc3Cl)s2)cc(N2CCN(CCCCCCOCCOCCOCCCCCC(=O)Nc3cccc4c3C(=O)N(C3CCC(=O)NC3=O)C4=O)CC2)n1 (stereo not drawn) | – | – | > 80% | > 60% | – | –
COc1cc(Nc2c(C#N)cnc3cc(OCCCN4CCN(CCCCCCOCCOCC(=O)Nc5cccc6c5C(=O)N(C5CCC(=O)NC5=O)C6=O)CC4)c(OC)cc23)c(Cl)cc1Cl (stereo not drawn) | – | – | > 80% | > 60% | 110 pM | 280 pM
Cc1nc(Nc2ncc(C(=O)Nc3c(C)cccc3Cl)s2)cc(N2CCN(CCCCCCOCCOCCOCCOCCOCCOCC(=O)N[C@H](C(=O)N3C[C@H](O)C[C@H]3C(=O)NCc3ccc(-c4scnc4C)cc3)C(C)(C)C)CC2)n1 | 88 pM | 280 pM | – | – | – | –
COc1cc(Nc2c(C#N)cnc3cc(OCCCN4CCN(CCCCCCOCCOCCOCCOCCOCCOCC(=O)Nc5cccc6c5C(=O)N(C5CCC(=O)NC5=O)C6=O)CC4)c(OC)cc23)c(Cl)cc1Cl (stereo not drawn) | – | – | > 80% | > 60% | 130 pM | 380 pM
Cc1nc(Nc2ncc(C(=O)Nc3c(C)cccc3Cl)s2)cc(N2CCN(CCCCCCOCCOCCOCCCCCC(=O)N[C@H](C(=O)N3C[C@H](O)C[C@H]3C(=O)NCc3ccc(-c4scnc4C)cc3)C(C)(C)C)CC2)n1 | 470 pM | 920 pM | – | – | – | –
Cc1nc(Nc2ncc(C(=O)Nc3c(C)cccc3Cl)s2)cc(N2CCN(CCCCCCOCCOCCOCCOCCOCCOCC(=O)Nc3cccc4c3C(=O)N(C3CCC(=O)NC3=O)C4=O)CC2)n1 (stereo not drawn) | – | – | > 80% | > 60% | 230 pM | 260 pM
Cc1nc(Nc2ncc(C(=O)Nc3c(C)cccc3Cl)s2)cc(N2CCN(CCCCCCOCCOCC(=O)N[C@H](C(=O)N3C[C@H](O)C[C@H]3C(=O)NCc3ccc(-c4scnc4C)cc3)C(C)(C)C)CC2)n1 | 210 pM | 360 pM | – | – | – | –
COc1cc(Nc2c(C#N)cnc3cc(OCCCN4CCN(CCCCCCOCCOCCOCCCCCC(=O)Nc5cccc6c5C(=O)N(C5CCC(=O)NC5=O)C6=O)CC4)c(OC)cc23)c(Cl)cc1Cl (stereo not drawn) | – | – | > 80% | > 60% | 550 pM | 910 pM
